Each structure is given as a SMILES string. Values after ≈ are worked out from the molar mass of the structure shown. Read-outs that look alike come from different tables or passages of the source.

The subject of data set [1] is MDCK (Madin-Darby canine kidney) cells.
For data set [2], the system named is influenza virus Type B (B/Panama/45/90). Description: CPE inhibition assay in MDCK cells, influenza B. Conditions: for EC50: Influenza B virus, MDCK, 72 h, read-out: Antiviral activity (EC50) Panama B. The format is cell-based.
For data set [3], the system named is influenza virus Type H3N2 (A/Seoul/11/88). Description: CPE inhibition assay in MDCK cells, influenza A/H3N2. The note with it: for EC50: 72 h, MDCK cells, 100 CCID50, three days, read-out: Antiviral activity (EC50) Seoul A/H3N2. Type of data set: cell-based.
Data set [4] deals with influenza virus Type H1N1 (A/Taiwan/1/86). The experiment in a line: CPE inhibition assay in MDCK cells, influenza A/H1N1. The format is cell-based. The note with it: for EC50: 72 h, MDCK cells, 100 CCID50, three days, read-out: Antiviral activity (EC50) Taiwan A/H1N1.
A short description of the next data set: in vitro. Conditions: dog.

On to `CC(O)C(=O)O` (centres unmarked) [Lactic acid, lactic acid], for which, in data set [1], the “Toxicity CC50 (50% cytotoxic concentration)” value came to 0.014. Moreover, the “Selectivity index (SI, CC50/EC50) Panama B” value in data set [2] is less than 1.00. The “Selectivity index (SI, CC50/EC50) Seoul A/H3N2” value in data set [3] (CC50/EC50) is given as less than 1.00. For the same molecule, in data set [4] (CC50/EC50), the “Selectivity index (SI, CC50/EC50) Taiwan A/H1N1” value is listed as less than 1.00.

As for `CCOC(=O)C1=C[C@@H](OC(CC)CC)[C@H](NC(C)=O)[C@@H](N)C1` [Oseltamivir, oseltamivir], in data set [2], the “Selectivity index (SI, CC50/EC50) Panama B” value was greater than 9.9. Moreover, the EC50 in data set [2] amounted to 10.1 µg/mL (≈ 32.5 µM); in data set [3], 0.49 µg/mL (≈ 1.57 µM); in data set [4], 16.4 µg/mL (≈ 52.3 µM). Also, in data set [3] (CC50/EC50), the “Selectivity index (SI, CC50/EC50) Seoul A/H3N2” value is on record as greater than 202.4. Also, the “Selectivity index (SI, CC50/EC50) Taiwan A/H1N1” value in data set [4] (CC50/EC50) was greater than 6.1. This molecule also displayed a CC50 in “in vitro” greater than 100 µg/mL.

In the case of `NC12CC3CC(CC(C3)C1)C2` [Amantadine, amantadine], the EC50 in data set [2] was greater than 100 µg/mL; in data set [3], 0.49 µg/mL (≈ 3.24 µM); in data set [4] it was greater than 100 µg/mL. In addition, in data set [3], the “Selectivity index (SI, CC50/EC50) Seoul A/H3N2” value is greater than 204.1. This molecule also displayed a CC50 in “in vitro” greater than 100 µg/mL.

As for `NC(=O)c1ncn([C@@H]2O[C@H](CO)[C@@H](O)[C@H]2O)n1` [Ribavirin, ribavirin], in data set [2], the “Selectivity index (SI, CC50/EC50) Panama B” value was greater than 43.7 and the EC50 was 2.29 µg/mL (≈ 9.38 µM). Further, in data set [3], the “Selectivity index (SI, CC50/EC50) Seoul A/H3N2” value was greater than 34.7 and the EC50 was determined as 2.88 µg/mL (≈ 11.8 µM). Further, in data set [4], the “Selectivity index (SI, CC50/EC50) Taiwan A/H1N1” value was greater than 15.3 and the EC50 amounted to 6.54 µg/mL (≈ 26.8 µM). For the same molecule, in “in vitro”, the CC50 was greater than 100 µg/mL.

For the origin of these results see patent publication US20100159039A1, “ANTIVIRAL AGENTS CONTAINING A FERMENTATION PRODUCT OF GARLIC BY LACTIC ACID BACTERIA” (Liisna Inc., priority 2008, published 2010).
